Test systems include NCI-H522 lung; NCI-H23 lung; OVCAR-4 ovarian; TK-10 renal; SR leukemia; NCI-H460 lung; CAKI-1 renal; MDA-MB-231 breast; CCRF-CEM leukemia; DU-145 prostate; SF-539 CNS; T-47D breast; IGROV1 ovarian; SW-620 colon; DMS 114 small cell lung; 786-0 renal; NCI/ADR-RES ovarian; MDA-MB-435; OVCAR-3 ovarian; OVCAR-5 ovarian.
Experiment in all cases: NCI-60 cell line screen, 48 h

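Five compound concentrations were applied to cells in 96-well plates for 48 hours; endpoints were derived by simple linear interpolation of the resulting dose-response curve. The concentration for full growth arrest is given as TGI.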

Turning to `CCCCCCCCCCCC(=O)OCC(C[As](=O)(O)O)OC(=O)CCCCCCCCCCC` (configuration not stated), the TGI in the experiment with NCI-H522 lung was 4.33 µM; in the experiment with NCI-H23 lung it was 18 µM; in the experiment on OVCAR-4 ovarian, 33.3 µM; in the experiment on TK-10 renal, 30.6 µM; with SR leukemia it was 51.4 µM; with NCI-H460 lung, 13.3 µM. For the same compound, the TGI in the experiment on CAKI-1 renal turned out to be 21.7 µM; with MDA-MB-231 breast it was 16 µM; in the experiment with CCRF-CEM leukemia, 30.8 µM; in the experiment on DU-145 prostate, 35.6 µM; in the experiment on SF-539 CNS it was 32 µM; in the experiment on T-47D breast, 42.3 µM. The TGI in the experiment with IGROV1 ovarian worked out at 3.5 µM; in the experiment on SW-620 colon, 26.8 µM; with DMS 114 small cell lung, 3.13 µM; in the experiment on 786-0 renal it was 26.7 µM; with NCI/ADR-RES ovarian it was 44.5 µM; with MDA-MB-435, 9.91 µM. The TGI stood at 22.8 µM in the experiment on OVCAR-3 ovarian and 34.1 µM in the experiment with OVCAR-5 ovarian.
For the compound `COc1cc2cc3c4cc(OC)c(OC)cc4cc[n+]3c(C)c2cc1OC` (tested in a mixture with another compound), the TGI in the experiment with NCI-H522 lung, in the experiment with NCI-H23 lung, in the experiment with OVCAR-4 ovarian, in the experiment with TK-10 renal, in the experiment with SR leukemia and in the experiment on NCI-H460 lung was > 100 µM throughout. The TGI in the experiment with CAKI-1 renal, in the experiment on MDA-MB-231 breast, in the experiment on CCRF-CEM leukemia, in the experiment on DU-145 prostate, in the experiment with SF-539 CNS and with T-47D breast was > 100 µM in each case. Moreover, the TGI with IGROV1 ovarian, in the experiment on SW-620 colon, in the experiment with DMS 114 small cell lung, in the experiment with 786-0 renal, in the experiment on NCI/ADR-RES ovarian and with MDA-MB-435 was > 100 µM in each case. Moreover, the TGI in the experiment on OVCAR-3 ovarian and in the experiment with OVCAR-5 ovarian was > 100 µM in each case.
As for `CC(=O)O[C@H]1C(=O)[C@@]2(C)C(C(OC(=O)c3ccccc3)[C@]3(O)CC(OC(=O)C(O)C(NC(=O)c4ccc(C(F)(F)F)cc4)c4ccccc4)C(C)=C1C3(C)C)[C@]1(OC(C)=O)CO[C@@H]1C[C@@H]2O` (some centres not stated), the TGI with NCI-H522 lung is 0.2 µM; in the experiment with NCI-H23 lung it was 1.06 µM; with OVCAR-4 ovarian it was > 37.5 µM; in the experiment with TK-10 renal, > 37.5 µM; in the experiment on SR leukemia, 4.96 µM; with NCI-H460 lung it was 0.783 µM. Besides, the TGI was > 37.5 µM in the experiment on CAKI-1 renal; 15.5 µM in the experiment on CCRF-CEM leukemia; 0.65 µM in the experiment on SF-539 CNS; > 37.5 µM in the experiment with IGROV1 ovarian; 0.763 µM in the experiment on SW-620 colon; 0.122 µM in the experiment with DMS 114 small cell lung. Besides, the TGI was 5.58 µM in the experiment on 786-0 renal, 0.194 µM in the experiment with OVCAR-3 ovarian and 3.95 µM in the experiment on OVCAR-5 ovarian.
`CCOC(=O)CC(C)C1(C(=O)OCC)CCCCC1=O` (configuration not stated): the TGI with NCI-H522 lung was > 100 µM; in the experiment with OVCAR-4 ovarian, > 100 µM; with TK-10 renal it was > 100 µM; in the experiment with SR leukemia it was 55.4 µM; in the experiment on NCI-H460 lung, > 100 µM; with CAKI-1 renal, > 100 µM. The TGI was > 100 µM in the experiment with CCRF-CEM leukemia; > 100 µM in the experiment with SF-539 CNS; > 100 µM with IGROV1 ovarian; 39.4 µM in the experiment with DMS 114 small cell lung; > 100 µM in the experiment on 786-0 renal; > 100 µM with OVCAR-3 ovarian. For the same compound, the TGI with OVCAR-5 ovarian is > 100 µM.
For the compound `O=Cc1ccccc1COC(=O)c1cc(C(=O)OCc2ccccc2C=O)c(C(=O)OCc2ccccc2C=O)cc1C(=O)OCc1ccccc1C=O`, the TGI in the experiment with NCI-H522 lung, in the experiment with NCI-H23 lung, in the experiment on OVCAR-4 ovarian, with TK-10 renal, in the experiment with SR leukemia and in the experiment on NCI-H460 lung was > 100 µM throughout. In addition, the TGI in the experiment with CAKI-1 renal, in the experiment with CCRF-CEM leukemia, with SF-539 CNS, with IGROV1 ovarian, in the experiment on SW-620 colon and in the experiment on DMS 114 small cell lung was > 100 µM throughout. For the same compound, the TGI in the experiment on 786-0 renal, with OVCAR-3 ovarian and in the experiment with OVCAR-5 ovarian was > 100 µM in each case.
Turning to `CCOC(=O)CCC(=O)C1c2cccc(O)c2C(=O)c2c(O)cc(C)cc21` (configuration not stated), the TGI in the experiment with NCI-H522 lung came out at 1.33 µM; with NCI-H23 lung it was 2.34 µM; in the experiment on OVCAR-4 ovarian, 1.76 µM; in the experiment with TK-10 renal, 3.39 µM; in the experiment with SR leukemia, 4.25 µM; with NCI-H460 lung it was 1.27 µM. For the same compound, the TGI in the experiment with CAKI-1 renal is 3.25 µM; in the experiment on CCRF-CEM leukemia, 2.75 µM; in the experiment on SF-539 CNS, 0.535 µM; with IGROV1 ovarian, 0.846 µM; in the experiment with SW-620 colon, 2.9 µM; with DMS 114 small cell lung it was 0.8 µM. Further, the TGI in the experiment with 786-0 renal worked out at 2.63 µM; with OVCAR-3 ovarian, 1.18 µM; in the experiment on OVCAR-5 ovarian it was 1.67 µM.
Take `CCCCCCCCCCCCCCCC(=O)OCC(C[As](=O)(O)O)OC(=O)CCCCCCCCCCCCCCC` (configuration not stated): the TGI in the experiment with NCI-H522 lung, with NCI-H23 lung, in the experiment with OVCAR-4 ovarian, with TK-10 renal, with SR leukemia and with NCI-H460 lung was > 100 µM each time. Further, the TGI in the experiment with CAKI-1 renal, with MDA-MB-231 breast, in the experiment with CCRF-CEM leukemia, in the experiment on SF-539 CNS, in the experiment with T-47D breast and in the experiment with IGROV1 ovarian was > 100 µM throughout. The TGI in the experiment with SW-620 colon, in the experiment on DMS 114 small cell lung, in the experiment with 786-0 renal, in the experiment with NCI/ADR-RES ovarian, with MDA-MB-435 and in the experiment with OVCAR-3 ovarian was > 100 µM each time. Besides, the TGI in the experiment with OVCAR-5 ovarian was > 100 µM.
For `O=C(CC(=O)n1nc(-c2ccccc2)c(N=Nc2ccc(Cl)cc2)c1-c1ccccc1)Nc1ccc(Cl)cc1`, the TGI was > 100 µM in the experiment on NCI-H522 lung; > 100 µM with NCI-H23 lung; > 100 µM in the experiment with OVCAR-4 ovarian; > 100 µM in the experiment with TK-10 renal; > 100 µM in the experiment with SR leukemia; > 59.4 µM with NCI-H460 lung. The TGI in the experiment on CAKI-1 renal is > 100 µM; with CCRF-CEM leukemia, > 62.8 µM; with SF-539 CNS, > 100 µM; in the experiment with IGROV1 ovarian it was > 100 µM; with SW-620 colon it was > 62.6 µM; in the experiment on DMS 114 small cell lung, > 56.9 µM. In addition, the TGI with 786-0 renal was > 61.1 µM; with OVCAR-3 ovarian, > 100 µM; in the experiment with OVCAR-5 ovarian, > 100 µM.

The values above are taken from PubChem BioAssay (NCI).
